Several values for one entry are separate records, joined by “and”; a condition that tells them apart may be missing. Equal values may be shown once.
Tests used:
Type in all cases: cell-based
AaegOR10 = target: T1, AaegOR10 (Aedes aegypti, UniProt Q177X3); assay: Two-electrode voltage clamp of Xenopus laevis oocytes expressing AaegOR10/Orco (blends, unitary compounds, concentration-response); conditions: for Raw Data, concentration-response: first series, oocytes 1-8; for Raw response, unitary compounds of blend Indoles 1: unitary compounds of Indoles 1, individual oocytes 1-9 (replicates)
T1 sequence (Q177X3 1-375): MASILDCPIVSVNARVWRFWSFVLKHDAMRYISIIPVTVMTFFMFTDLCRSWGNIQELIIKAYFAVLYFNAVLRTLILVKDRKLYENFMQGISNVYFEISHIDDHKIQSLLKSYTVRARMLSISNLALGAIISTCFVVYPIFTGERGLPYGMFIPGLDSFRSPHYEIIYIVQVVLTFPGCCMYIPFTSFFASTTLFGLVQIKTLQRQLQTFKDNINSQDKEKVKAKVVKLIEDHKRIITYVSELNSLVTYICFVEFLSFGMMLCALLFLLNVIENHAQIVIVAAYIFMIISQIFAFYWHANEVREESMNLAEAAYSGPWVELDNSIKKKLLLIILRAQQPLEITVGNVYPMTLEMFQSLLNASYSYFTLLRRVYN
T1 sequence (Q178U6 1-478 partner): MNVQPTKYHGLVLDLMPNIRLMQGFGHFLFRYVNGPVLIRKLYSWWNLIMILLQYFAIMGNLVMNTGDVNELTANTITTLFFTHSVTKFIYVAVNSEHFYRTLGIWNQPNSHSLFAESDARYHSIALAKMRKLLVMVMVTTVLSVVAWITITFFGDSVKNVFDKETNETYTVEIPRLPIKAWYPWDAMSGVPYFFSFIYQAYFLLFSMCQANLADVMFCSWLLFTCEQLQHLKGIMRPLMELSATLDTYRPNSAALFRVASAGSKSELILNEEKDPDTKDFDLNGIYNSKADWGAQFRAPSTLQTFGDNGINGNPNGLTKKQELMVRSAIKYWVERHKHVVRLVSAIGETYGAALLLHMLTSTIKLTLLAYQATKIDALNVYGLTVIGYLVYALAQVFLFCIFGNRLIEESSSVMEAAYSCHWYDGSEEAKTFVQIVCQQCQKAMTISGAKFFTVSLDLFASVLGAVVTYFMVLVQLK
Description: (§1) The coding regions of ten AaegOR genes of interest (S3 File) and AaegOrco were synthesized by Twist Bioscience (San Francisco, CA, USA) and cloned into the pENTR plasmid. The Gateway LR directional cloning system (Invitrogen Corp., Carlsbad, CA, USA) was utilized to subclone AaegOR coding regions into the pSP64t-RFA oocyte expression plasmid. Plasmids were purified using the GeneJet Plasmid Miniprep Kit (ThermoFisher Scientific, Waltham, MA, USA). Purified plasmids were sequenced in both directions to confirm coding regions.
(§2) Chemical compounds (S6 File) used in the deorphanization of AaegORs were purchased from Acros Organics (Morris, NJ, USA), Alfa Aesar (Ward Hill, MA, USA), and ThermoFisher Scientific (Waltham, MA, USA) at the highest purity available. Compounds were stored as 1M stocks in 100% DMSO. Serial dilutions of each compound were prepared in 10% DMSO and blended by chemical class.
(§3) pSP64t-RFA: AaegOR clones were linearized using Xbal, and cRNAs were synthesized using the mMESSAGE mMACHINE ® SP6 kit (Life Technologies, Carlsbad, CA, USA). Xenopus laevis stage V-VII oocytes purchased from Xenopus1 (Dexter, MI, USA) were stored at 18°C in Incubation medium (ND96 96 with 5% dialyzed horse serum, 50μg/mL gentamycin, 100μg/mL streptomycin, 100μg/mL penicillin, and 550μg/mL sodium pyruvate). 30nL of cRNA was injected into multiple oocytes using a microinjection syringe pump (World Precision Instruments, Sarasota, FL, USA) maintained at 18°C for 48–72 hrs. Odorant blends were perfused across individual oocytes for 10–15 seconds, held at a resting membrane potential of -80 mV using an OC-725C oocyte clamp (Warner Instruments, LLC, Hamden, CT, USA). Induced currents were measured indirectly using the two-electrode voltage clamp technique (TEVC). Following each stimulus, currents were allowed to return to baseline before further stimulation. Data was captured using the Digidata 1550 B digitizer and PClamp10 software (Molecular Devices, San Jose, CA, USA). Concentration-response curves were generated by perfusing unitary odorants over oocytes at increasing concentrations from [10^-3M] to [10^-9M]. Data were analyzed using GraphPad Prism 8 (GraphPad Software Inc., La Jolla, CA, USA). At least two biological replicates were conducted at each concentration and for each compound. Data for at least seven oocytes responding to each compound was analyzed (S7 File).

AaegOR13 = target: T2, AaegOR13 (Aedes aegypti, UniProt Q16Z13); assay: Two-electrode voltage clamp of Xenopus laevis oocytes expressing AaegOR13/Orco (blends, unitary compounds, concentration-response); conditions: for Raw data (Responses in nA), unitary compounds of Indoles 1, Alcohols 1, Alcohols 3: individual oocytes 1-7
T2 sequence (Q16Z13 1-389): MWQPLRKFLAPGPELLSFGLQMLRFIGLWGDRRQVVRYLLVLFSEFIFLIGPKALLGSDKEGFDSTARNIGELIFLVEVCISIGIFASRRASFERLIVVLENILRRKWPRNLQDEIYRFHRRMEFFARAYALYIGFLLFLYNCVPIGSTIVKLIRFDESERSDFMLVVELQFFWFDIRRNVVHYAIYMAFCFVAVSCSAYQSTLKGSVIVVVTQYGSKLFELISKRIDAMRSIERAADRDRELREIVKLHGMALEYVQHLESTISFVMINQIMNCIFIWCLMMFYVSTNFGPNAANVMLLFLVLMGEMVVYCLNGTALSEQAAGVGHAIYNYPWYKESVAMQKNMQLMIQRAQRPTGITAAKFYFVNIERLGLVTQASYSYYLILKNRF
T2 sequence (Q178U6 1-478 partner): T1 sequence (Q178U6 1-478 partner)
How it was run: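 Xenopus oocytes injected with cRNA for AaegOR plus Orco, kept 48–72 hrs at 18°C, clamped at -80 mV by TEVC. Odorant blends or single compounds (10% DMSO dilutions) perfused 10–15 s; concentration-response from 10^-3M to 10^-9M, ≥7 responding oocytes, ≥2 biological replicates.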

AaegOR55 = target: T3, AaegOR55 (Aedes aegypti, UniProt Q16T12); assay: Two-electrode voltage clamp of Xenopus laevis oocytes expressing AaegOR55/Orco (blends, unitary compounds, concentration-response); conditions: for Raw Data (Responses in nA), Indoles 1 unitary compounds / Raw Data (Responses in nA), concentration-response: AaegOR55; for Raw Data (Responses in nA), Indoles 1 unitary compounds: compounds of blend Indoles 1, individual oocytes (Oocyte 1-7); for Raw Data (Responses in nA), concentration-response: individual oocytes (Oocyte 1-9)
T3 sequence (Q16T12 10-392): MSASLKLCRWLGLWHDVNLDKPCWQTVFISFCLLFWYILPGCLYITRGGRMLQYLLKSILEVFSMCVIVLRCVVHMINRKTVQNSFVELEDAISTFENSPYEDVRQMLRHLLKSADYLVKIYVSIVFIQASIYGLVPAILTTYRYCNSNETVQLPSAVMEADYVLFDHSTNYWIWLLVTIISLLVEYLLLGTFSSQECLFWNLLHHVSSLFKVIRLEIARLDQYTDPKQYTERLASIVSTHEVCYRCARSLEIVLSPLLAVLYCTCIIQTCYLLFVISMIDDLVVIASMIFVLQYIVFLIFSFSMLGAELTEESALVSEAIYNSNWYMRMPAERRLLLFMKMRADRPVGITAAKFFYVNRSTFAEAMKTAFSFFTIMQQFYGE
T3 sequence (Q178U6 1-478 partner): T1 sequence (Q178U6 1-478 partner)
Description: as §1, §2, §3

SMILES | Raw response, unitary compounds of blend Indoles 1 (AaegOR10) | Raw data (Responses in nA), unitary compounds of Indoles 1, Alcohols 1, Alcohols 3 (AaegOR13) | Raw Data (Responses in nA), Indoles 1 unitary compounds (AaegOR55) | other results
Cc1c[nH]c2ccccc12 [3-methylindole] | 270.0 nA and 500.0 nA and 120.0 nA and 40.0 nA and 80.0 nA and 320.0 nA and 70.0 nA and 180.0 nA and 30.0 nA | 0.0 nA and 5.0 nA (5×) and 10.0 nA | 160.0 nA and 85.0 nA and 170.0 nA and 235.0 nA and 120.0 nA and 225.0 nA and 245.0 nA | Raw Data, concentration-response (AaegOR10; 5e-7 M): 90.0 nA; Raw Data, concentration-response (AaegOR10; 1e-5 M): 100.0 nA; EC50 (AaegOR10; AaegOR10/Orco expressing oocytes, TEVC, concentration-response of normalized current): 160 nM; response of AaegOR55 to unitary compounds (AaegOR55; AaegOR55/Orco expressing oocytes, TEVC, individual compounds): responded
Cc1cc2ccccc2[nH]1 [2-Methylindole] | 0.0 nA | 0.0 nA (6×) and 5.0 nA | 0.0 nA | –
c1ccc2[nH]ccc2c1 [indole] | 0.0 nA (6×) and 80.0 nA and 10.0 nA (2×) | 0.0 nA (3×) and 5.0 nA (4×) | 40.0 nA (2×) and 15.0 nA and 30.0 nA (2×) and 25.0 nA (2×) | –
COC(=O)c1c[nH]c2ccccc12 [methyl indole-3-carboxylate] | 0.0 nA (6×) and 10.0 nA (2×) and 30.0 nA | 0.0 nA and 20.0 nA and 15.0 nA (2×) and 10.0 nA (3×) | – | –
O=Cc1c[nH]c2ccccc12 [indole-3-carboxaldehyde] | 80.0 nA and 30.0 nA and 100.0 nA and 20.0 nA (2×) and 70.0 nA and 0.0 nA (3×) | – | 50.0 nA and 25.0 nA (2×) and 40.0 nA and 20.0 nA and 45.0 nA and 35.0 nA | –
Cc1[nH]c2ccccc2c1C [2,3-dimethylindole] | 70.0 nA and 20.0 nA and 0.0 nA (4×) and 10.0 nA (2×) and 30.0 nA | 0.0 nA (6×) and 5.0 nA | 235.0 nA and 140.0 nA and 250.0 nA and 300.0 nA and 185.0 nA and 305.0 nA and 295.0 nA | EC50 (AaegOR55; AaegOR55/Orco expressing oocytes, TEVC, concentration-response of normalized current): 8650 nM; Raw Data (Responses in nA), concentration-response (AaegOR55; concentration 1e-7 M): 10.0 nA (6×) and 15.0 nA (2×) and 5.0 nA; Raw Data (Responses in nA), concentration-response (AaegOR55; concentration 5e-7 M): 30.0 nA (4×) and 20.0 nA (2×) and 15.0 nA and 40.0 nA and 45.0 nA; Raw Data (Responses in nA), concentration-response (AaegOR55; concentration 1e-6 M): 20.0 nA (2×) and 10.0 nA and 30.0 nA (2×) and 15.0 nA and 35.0 nA and 40.0 nA and 55.0 nA; Raw Data (Responses in nA), concentration-response (AaegOR55; concentration 5e-6 M): 70.0 nA and 25.0 nA and 80.0 nA and 60.0 nA (2×) and 110.0 nA and 120.0 nA and 190.0 nA (2×); Raw Data (Responses in nA), concentration-response (AaegOR55; concentration 1e-5 M): 90.0 nA (2×) and 25.0 nA and 120.0 nA and 80.0 nA and 140.0 nA and 170.0 nA and 260.0 nA (2×); Raw Data (Responses in nA), concentration-response (AaegOR55; concentration 5e-5 M): 165.0 nA and 40.0 nA and 210.0 nA and 140.0 nA and 170.0 nA and 220.0 nA and 240.0 nA and 430.0 nA and 380.0 nA; Raw Data (Responses in nA), concentration-response (AaegOR55; concentration 0.0001 M): 160.0 nA and 55.0 nA and 210.0 nA (3×) and 140.0 nA and 180.0 nA and 440.0 nA and 380.0 nA
CCc1ccc(O)cc1 [4-ethylphenol, 4-Ethylphenol] | 0.0 nA | 70.0 nA and 740.0 nA and 340.0 nA and 310.0 nA and 300.0 nA and 275.0 nA and 250.0 nA | 5.0 nA (5×) and 0.0 nA (2×) | EC50 (AaegOR13; AaegOR13/Orco expressing oocytes, TEVC, concentration-response of normalized current): ~170 nM and 170 nM

— publication PMC11073699, “Odorant receptors for floral- and plant-derived volatiles in the yellow fever mosquito, Aedes aegypti (Diptera: Culicidae)” (PLOS ONE, 2024)
